Reference: paper PMC9413491, “A Novel and Cross-Species Active Mammalian INDY (NaCT) Inhibitor Ameliorates Hepatic Steatosis in Mice with Diet-Induced Obesity” (Metabolites, 2022)

Key:
mouse Nact = molecular target: T1, mouse Nact (Mus musculus, UniProt Q67BT3); experiment: [14C] citrate uptake in HEK293 cells recombinantly expressing mouse Nact; assay type: cell-based; conditions: HEK293 overexpressing mouse Nact, citrate substrate; read-out: IC50 [14C] citrate uptake, HEK293 (mouse Nact)
T1 construct: expressed in transfected cells; host or cells: HEK293 (DSMZ), stably transfected, G418 selection
T1 sequence (Q67BT3 1-572): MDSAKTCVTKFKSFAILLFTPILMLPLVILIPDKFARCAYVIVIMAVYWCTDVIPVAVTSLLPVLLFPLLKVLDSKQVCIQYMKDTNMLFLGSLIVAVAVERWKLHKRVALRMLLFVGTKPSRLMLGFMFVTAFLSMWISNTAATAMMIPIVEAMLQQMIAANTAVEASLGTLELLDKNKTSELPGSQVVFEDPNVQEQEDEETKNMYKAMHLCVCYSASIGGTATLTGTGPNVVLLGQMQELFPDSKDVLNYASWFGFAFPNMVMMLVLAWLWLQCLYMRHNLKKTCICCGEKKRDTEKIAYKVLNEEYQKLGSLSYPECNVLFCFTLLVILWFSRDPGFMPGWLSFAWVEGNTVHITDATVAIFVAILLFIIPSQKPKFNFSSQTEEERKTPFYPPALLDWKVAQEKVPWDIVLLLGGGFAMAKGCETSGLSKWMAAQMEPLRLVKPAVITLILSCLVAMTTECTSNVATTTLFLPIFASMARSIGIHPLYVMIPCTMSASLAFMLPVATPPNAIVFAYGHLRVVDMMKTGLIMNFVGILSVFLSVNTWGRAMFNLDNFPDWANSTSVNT
Source text: We determined activity on human NaCT by measuring citrate uptake into HepG2 cells, which endogenously expressed NaCT [37] and for mouse Nact, using HEK293 cells recombinantly expressing mouse Nact (HEK-Nact). We cloned the mouse Slc13a5 cDNA encoding Nact as described previously.
For radiometric [14C] citrate uptake assays, we used Cytostar-T plates (Perkin Elmer#RPNQ0166, Waltham, MA, USA). For each assay, we seeded 20,000 HepG2 cells per well on collagen coated 384-well Cytostar-T plates or 5000 HEK293 cells per well on ploy-D-lysine coated 384-well Cytostar-T plates. On the following day, we changed culture medium to assay buffer: 120 mM NaCl, 5.4 mM KCl, 0.8 mM MgSO4, 5 mM glucose, 1.8 mM CaCl2, 25 mM Hepes, 25 mM MES, pH 6.5 (human) and pH 7.5 (mouse). We preincubated cells with compounds at 37 °C for 20 min, after which we added [14C] citrate (3 µM for HEK cells and 10 µM for HepG2 cells) and incubated cells for 50 min at 37 °C. After cooling down for 15 min at 4 °C, we measured the counts using a Microbeta2 reader system (Perkin Elmer).

DIO mice = experiment: 7-day treatment of diet-induced obesity (DIO) mice; assay type: in vivo, mouse; conditions: 15 mg/kg twice daily, 7 days
Method: We performed in vivo testing in DIO mice (for 7- and 28-day treatment), an established model designed to study high-fat-diet-induced hepatic steatosis and associated cardiometabolic traits. We established DIO in four-week-old C57BL/6N male mice that were fed a high-fat diet (HFD, 60 kcal% fat, D12492; Research Diets, Inc.; New Brunswick, NJ, USA) until 11 weeks of age.
Mice were housed at a temperature of 22–24 °C, with a day/night cycle of 12/12 h (07:00-19:00–07:00) and had access to the appropriate diet and tap water ad libitum. Animals allocated to the pair-feeding group were fed the same amount of food as the corresponding treatment group had consumed the day before. Food was only withdrawn for overnight fasting on the penultimate study day before the section on the final day. We randomised groups of n = 12 for treatment and n = 8 for pair-feeding cage-wise according to random fed blood glucose levels and body weight before the study treatment was started. For all animals, the high-fat diet was started at the same age.
We treated DIO mice with the inhibitor or corresponding vehicle (5% DMSO/10% Cremophor® EL/85% water) twice a day at the same time by oral gavage according to their grouping (5, 15, and 50 mg/kg dose groups, and vehicle control groups). During the study, we measured body weight and blood glucose. We measured glucose concentrations in tail tip blood samples with the “Accu-Chek® Performa” glucometer (Roche, Basel, Switzerland, range <33.3 mmol/L). We determined random fed blood glucose and fasting blood glucose after overnight fasting.
We determined serum beta-hydroxybutyrate with a Beta-Hydroxybutyrate Assay kit, (Sigma-Aldrich, Cat.No. MAK041, St. Louis, MO, USA) following the manufacturer’s instructions. The sample was undiluted, and the volume was 5 µL.
We performed Western blots as described previously. Deviating from that protocol samples were heated for 5 min at 95 °C and blotting time was 1 h at 20 volts. For target protein detection, AMPK alpha (D63G4) Rabbit mAb (Cell Signaling Technology, Inc., Danvers, MA, USA; Cat. No. #5832/3; working dilution 1:1000) and Phospho-AMPK alpha (Thr172) (40H9) Rabbit mAb (Cell Signaling Technology, Inc.; Cat. No. #2535/16; working dilution 1:1000) were used; gel loading was controlled by anti-beta-actin (Sigma-Aldrich, Cat. No. A2228). We detected signals with the SuperSignal West Dura Extended Duration Substrate (Thermo Fisher Scientific; Cat. No. 34076, Waltham, MA, USA).

**Q.** How did the IC50 (mouse Nact) turn out when O=C(Nc1cc(Cl)cc(C(F)(F)F)c1)OCCC(F)(F)F [ETG-5773] was run?
**A.** 180 nM

**Q.** What about the “Liver fat after seven-days treatment” value (DIO mice) of the same compound?
**A.** not sufficient to significantly reduce liver fat

**Q.** And the “Ratio of phosphorylated AMPK to total AMPK in liver vs both control groups” value (DIO mice; Western blot, p < 0.01)?
**A.** AMPK activation

**Q.** What about the “HOMA-IR change vs vehicle” value (DIO mice; numerically reduced, p = 0.24) of the same compound?
**A.** −95%

**Q.** What about the “Fasting serum insulin change vs vehicle” value (DIO mice; numerically reduced, p = 0.4) of the same compound?
**A.** −91%

**Q.** And the “Body weight change vs vehicle control” value (DIO mice; p < 0.0001)?
**A.** −15%

**Q.** And the “Fasting blood glucose change vs vehicle” value (DIO mice; p < 0.0001)?
**A.** −45%

**Q.** And the “Reduction in fasting blood glucose vs pair-fed vehicle control” value (DIO mice; p < 0.0001)?
**A.** 36%

**Q.** And the “Reduction in HOMA-IR vs pair-fed vehicle control” value (DIO mice; p < 0.05)?
**A.** > 95%

**Q.** What about the “Reduction in fasting serum insulin vs pair-fed vehicle control” value (DIO mice; p < 0.05) of the same compound?
**A.** > 95%
